Data taken from PubChem BioAssay AID1259332 (Broad Institute, 2017).
The source made the active and inactive calls. How the calls were made is not given here.

Tested on: not listed separately
Assay: inhibitors of CD40 signaling, dose response, B cell lineage (AID 1259332);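 further: cells stimulated with CD40 ligand tCD40L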;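 on activity change, negative = inhibition: 0% = neutral control wells and -100% = positive control wells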
Details: B cell line, CD40 signaling inhibition reporter; at 0.38 µM (top of the series)

SMILES	activity change, negative = inhibition
C[C@H]1CN([C@@H](C)CO)C(=O)c2ccccc2-c2ccccc2CO[C@H]1CN(C)Cc1ccc(Oc2ccccc2)cc1	6.67% (inactive)
c1ccc(CCSc2nccn2-c2ccccc2)cc1	36.4% (inactive)
O=C1C(=Cc2ccccc2[N+](=O)[O-])Cc2ccccc21	19.6% (inactive)

Same assay, conditions: B cell line, CD40 signaling inhibition reporter; at 1.1 µM (top of the series)

SMILES	activity change, negative = inhibition
CC(C)(C)[S@](=O)N1Cc2cc(C(=O)NCC(F)(F)F)nc(-c3cccc(-c4cccc(F)c4)c3)c2[C@@H]1CCO	9.18% (inactive)
O=C(Nc1nc2ccccc2s1)c1ccc(OCC2CCCO2)cc1 (configuration not stated)	111% (inactive)
COc1ccc(C#Cc2ccc([C@H]3[C@@H](CO)N4CCCCN(S(=O)(=O)c5cn(C)cn5)C[C@H]34)cc2)cc1	15.6% (inactive)
C/C=C/c1ccc(C2[C@H]3CNC[C@@H]2N3Cc2cccc(OC)c2)cc1 (some centres not stated)	19.7% (inactive)
CO[C@@H](CN(C)S(=O)(=O)c1ccc(Cl)cc1)[C@H](C)CN(Cc1ccccc1Cl)[C@@H](C)CO	0.243% (inactive)
CCc1cnc(N2[C@H](C#N)[C@@H](c3ccccc3C3=CCCC3)[C@@H]2CO)s1	18.2% (inactive)

Same assay, conditions: B cell line, CD40 signaling inhibition reporter; at 3 µM (top of the series)

SMILES	activity change, negative = inhibition
O=C(Nc1ccccc1F)N1C[C@@H]2N[C@H](C1)C2c1ccc(/C=C/c2ccccc2)cc1 (some centres not stated)	2.39% (inactive)

Same assay, conditions: B cell line, CD40 signaling inhibition reporter; at 3.5 µM (top of the series)

SMILES	activity change, negative = inhibition
CCCNC(=O)c1cc2c(c(-c3cccc(-c4cc5ccccc5o4)c3)n1)[C@H](CCO)N(C(=O)NC(C)C)C2	4.19% (inactive)
COc1ccc(CN2CC3(CN(C(=O)Cc4ccccc4)C3)c3c([nH]c4cc(OC)ccc34)[C@H]2CO)cc1	-3.26% (inactive)
CCc1cnc(N2[C@H](C#N)[C@@H](c3ccc(C#CC(C)C)cc3)[C@H]2CO)s1	8.53% (inactive)
c1cncc(C2=NCCC2)c1	-2.83% (inactive)
COc1ccc(Cl)cc1NC(=O)Nc1cc(C)nc2ccccc12	-7.79% (inactive)
N#C[C@@H]1[C@@H](c2ccccc2-c2ccccc2)[C@@H](CO)N1C(=O)NC1CCCC1	5.58% (inactive)
N#C[C@H]1[C@@H](c2ccc(C#CC3CCCCC3)cc2)[C@@H](CO)N1C(=O)Nc1ccc(F)cc1	2.75% (inactive)
O=C(NCCC(c1ccccc1)c1ccco1)c1cccs1 (configuration not stated)	25.6% (inactive)
C[C@H](CO)N1C[C@H](C)[C@H](CN(C)CC2CCCCC2)Oc2ccc(NC(=O)Nc3ccc(C(F)(F)F)cc3)cc2C1=O	4.59% (inactive)
CC1=CC(=O)c2ccccc2C1=O	11.2% (inactive)
O=C(CCN1CCC(c2ccccc2)C1)c1ccc2c(c1)OCCO2 (configuration not stated)	26.9% (inactive)
CC(C)(C)c1cc(/C=C(\C#N)C(N)=S)cc(C(C)(C)C)c1O	4.91% (inactive)
O=S(=O)(c1cccc2cnccc12)N1CCNCC1	-9.07% (inactive)
O=C(Nc1ccc(C(F)(F)F)cc1)Nc1ccc2c(c1)[C@H]1C[C@@H](CC(=O)N3CCc4ccccc4C3)O[C@@H](CO)[C@H]1O2	-2.03% (inactive)
C[C@@H]1CCCCO[C@@H](CN(C)CC2CCCCC2)[C@@H](C)CN([C@@H](C)CO)C(=O)c2cc(NC(=O)Nc3ccc(C(F)(F)F)cc3)ccc2O1	-6.41% (inactive)
Cc1noc(C)c1S(=O)(=O)Nc1ccc2c(c1)C(=O)N([C@H](C)CO)C[C@H](C)[C@@H](CN(C)C(=O)Nc1cccc3ccccc13)OCCCC[C@H](C)O2	-1% (inactive)
COc1cccc(S(=O)(=O)N(C)C[C@H]2OCc3ccccc3-c3c(n(C)c4ccccc34)C(=O)N([C@@H](C)CO)C[C@H]2C)c1	-5.41% (inactive)
N#C[C@H]1[C@H](c2ccc(C#CC3CCCCC3)cc2)[C@@H](CO)N1C(=O)Nc1ccc(F)cc1	-2.23% (inactive)
Cc1noc(C)c1NC(=O)N(C)C[C@@H]1OCCCC[C@@H](C)Oc2ccc(NC(=O)Nc3ccc(C(F)(F)F)cc3)cc2C(=O)N([C@H](C)CO)C[C@H]1C	-11.7% (inactive)
O=C1C=CC(=O)C2=C1C1c3ccccc3C2c2ccccc21	-3.76% (inactive)
N#Cc1cccc(-c2ccc([C@@H]3[C@H](CO)N4CCCCN(C(=O)Nc5cccc(F)c5)C[C@@H]34)cc2)c1	18.1% (inactive)
Cc1ccccc1-c1ccc(C2[C@@H]3CN(C(=O)Nc4cccc(F)c4)C[C@H]2N3)cc1 (some centres not stated)	7.95% (inactive)
CC(C)NC(=O)N1CC(=O)N2[C@H](CO)[C@@H](c3ccc(/C=C/c4ccccc4)cc3)[C@H]2C1	6.58% (inactive)

Same assay, conditions: B cell line, CD40 signaling inhibition reporter; at 10 µM (top of the series)

SMILES	activity change, negative = inhibition
Cc1cc(C)c2c(c1)SC1=NC(c3ccccc3)(C(F)(F)F)NC(=O)N12 (configuration not stated)	8.7% (inactive)
COC(=O)c1ccc2c(=O)[nH]c(COC(=O)c3c(-c4ccccc4)noc3C)nc2c1	7.81% (inactive)
Nc1cccc2nc3ccccc3cc12	22.5% (inactive)
Cc1noc(C)c1S(=O)(=O)Nc1ccc2c(c1)C(=O)N([C@@H](C)CO)C[C@H](C)[C@@H](CN(C)C(=O)Nc1cccc3ccccc13)OCCCC[C@H](C)O2	-10.1% (inactive)
COc1ccc(NC(=O)O/N=C/c2c(C)nn(C(C)(C)C)c2C)cc1	13.9% (inactive)
COc1ccc(S(=O)(=O)N(C)C[C@@H]2Oc3ccc(NC(=O)Nc4ccc(C(F)(F)F)cc4)cc3C(=O)N([C@@H](C)CO)C[C@@H]2C)cc1	8.35% (inactive)
Cc1ccc2nc(-c3cc(-c4ccccc4)no3)cn2c1	34.4% (inactive)
C[C@@H]1CN([C@@H](C)CO)C(=O)c2c(c3ccccc3n2C)-c2ccccc2CO[C@@H]1CN(C)Cc1ccccc1C(F)(F)F	4.94% (inactive)
C[C@@H]1CN([C@@H](C)CO)C(=O)c2ccccc2-c2ccccc2CO[C@@H]1CN(C)C(=O)c1cc(Cl)cc(Cl)c1	-6.79% (inactive)
O=C1C(O)CC2c3ccccc3CC3(CCCC3)N12 (configuration not stated)	0.899% (inactive)
O=C1C(Br)=C(c2ccccc2)C(c2ccccc2)=C1c1ccccc1	-7.86% (inactive)
NS(=O)(=O)c1nn2cc(-c3ccccc3)nc2s1	-27.6% (inactive)
Cc1ccc(C2(C)NC(=O)N(CC(=O)Nc3cccnc3Cl)C2=O)cc1 (configuration not stated)	-2.81% (inactive)
NS(=O)(=O)c1cc2c(cc1C(F)(F)F)NC(Cc1ccccc1)NS2(=O)=O (configuration not stated)	5.72% (inactive)
CCSc1ccc(-c2cc(NC=O)c3ncc(-c4cccc(C(=O)N(C)C)c4)n3c2)cc1	21.6% (inactive)
C[C@@H]1CN([C@@H](C)CO)C(=O)c2c(c3ccccc3n2C)-c2ccccc2CO[C@H]1CN(C)S(=O)(=O)c1ccc([N+](=O)[O-])cc1	-6.57% (inactive)
CCN1C(=O)C(CC(=O)Nc2ccc(OC)cc2)N(CCc2ccc(F)cc2)C1=S (configuration not stated)	-3.22% (inactive)
CC(C)(C)n1cc(C(=O)c2ccc3ccccc3c2O)cn1	-16.1% (inactive)
CCCCn1c(NC(=O)c2ccc(Br)o2)c(S(=O)(=O)c2ccccc2)c2nc3ccccc3nc21	6.39% (inactive)

SMILES	activity change, negative = inhibition
C[C@@H]1CN([C@H](C)CO)C(=O)c2c(c3ccccc3n2C)-c2ccccc2CO[C@H]1CN(C)C(=O)Nc1ccccc1C(F)(F)F	-0.491% (inactive)
Cc1ccc(-c2nn3c(C)nnc3c3ccccc23)cc1S(=O)(=O)NCc1ccccc1	3.44% (inactive)
COc1ccc(S(=O)(=O)Nc2ccc3c(c2)C(=O)N([C@@H](C)CO)C[C@@H](C)[C@H](CN(C)Cc2ccc(C(F)(F)F)cc2)OCCCC[C@@H](C)O3)cc1	-0.502% (inactive)
CCc1cc2c(=O)c(-c3ccc4c(c3)OCCO4)coc2c(CN2CCCCC2C)c1O (configuration not stated)	1.98% (inactive)
CCCCC1C(=O)NC(=S)N(C)C1=O (configuration not stated)	11.5% (inactive)
Cc1ccc(-c2cc(C(=O)N3CCCC(C(F)(F)F)C3)c3ccccc3n2)o1 (configuration not stated)	16.7% (inactive)
C[C@@H]1CN([C@H](C)CO)C(=O)c2c(c3ccccc3n2C)-c2ccccc2CO[C@H]1CN(C)C(=O)c1cc(Cl)cc(Cl)c1	-4.87% (inactive)
CCN(CC(=O)Nc1ccc(NC(C)=O)cc1)C(=O)C1CCCN(C(=O)c2ccc(Cl)cc2)C1 (configuration not stated)	0.336% (inactive)
O=C(Nc1ccccc1F)N1CCCCN2[C@H](CO)[C@H](c3ccc(/C=C/c4ccccc4)cc3)[C@H]2C1	-13.9% (inactive)
OC1(c2ccc(Cl)c(C(F)(F)F)c2)CCN(CCCC(c2ccc(F)cc2)c2ccc(F)cc2)CC1	3.82% (inactive)
O=C1Cc2c([nH]c3ccc(Br)cc23)-c2ccccc2N1	17.8% (inactive)
O=C(c1ccc(-c2ccc([N+](=O)[O-])cc2)o1)N1CCCC(C(F)(F)F)C1 (configuration not stated)	7.32% (inactive)
CCc1cc2c(COC(=O)c3cc(S(=O)(=O)N4CCOCC4)ccc3F)cc(=O)oc2cc1O	11.4% (inactive)
Fc1ccccc1/C=C1\CCCC2=C1Nc1nnnn1C2c1ccccc1F (configuration not stated)	-1.53% (inactive)
N=C(N)c1ccc(OCCCCCOc2ccc(C(=N)N)cc2)cc1	-0.281% (inactive)
CC(=O)c1cc(-c2ccccc2)n(CC(=O)NCc2cccs2)c1C	-1.07% (inactive)
CC(=O)Nc1ccc(S(=O)(=O)c2ccc(N)cc2)cc1	0.776% (inactive)
OC(CCN1CCCCC1)c1ccc(-c2ccccc2)cc1 (configuration not stated)	40.4% (inactive)

Tested on: B cell line, CD40 signaling inhibition reporter
Assay: as above
Details: not given

SMILES	AC50
CCOC(=O)c1c(SCCN2CCCC2)n(-c2ccccc2)c(=S)n(-c2ccccc2)c1=O	> 20 µM (inactive)
CCN(CC)c1ccc(C(NC(=O)C(C)C)c2ccc3cccnc3c2O)cc1 (configuration not stated)	> 20 µM (inactive)
